Measured values as given in US8592422B2, “Bicyclic triazole and pyrazole lactams as allosteric modulators of mGluR5 receptors” (Vanderbilt University, priority 2010, dated 2013).

Biological target: T1, human mGluR5a receptor (Homo sapiens, UniProt P41594)
T1 construct: cDNA subcloned into pcDNA3.1(-)
Experiment: Cell-based functional Ca2+ mobilization assay (FDSS), potentiation of glutamate EC20 response
Conditions: for pEC50 / EC50: HEK cells transfected with human mGluR5 (H10H or H12H), in presence of EC20 glutamate; for EC50: read-out: EC50; for Emax (%) / Emax: maximum % effect in concentration-response curve, as percent of response to maximally effective glutamate
Method: Human embryonic kidney (HEK) cells transfected with rat mGluR5 were plated in clear bottom assay plates for assay in a Functional Drug Screening System (FDSS). In the alternative assay, HEK cells transfected with human mGluR5 were plated for assay in the FDSS. In some cases the HEK cells transfected with human mGluR5 were the H10H cell line. Alternatively, the HEK cells transfected with human mGluR5 were the H12H cell line. […] The cells were loaded with a Ca^2+-sensitive fluorescent dye (e.g., Fluo-4), and the plates were washed and placed in the FDSS instrument. After establishment of a fluorescence baseline for twelve seconds, the compounds of the present invention were added to the cells, and the response in cells was measured. Alternatively, in various further aspects, after establishment of a fluorescence baseline for about three seconds, the compounds of the present invention were added to the cells, and the response in cells was measured. Five minutes later, an mGluR5 agonist (e.g., glutamate, 3,5-dihydroxyphenylglycine, or quisqualate) was added to the cells, and the response of the cells was measured.
The above described assay operated in two modes. In the first mode, a range of concentrations of the present compounds were added to cells, followed by a single fixed concentration of agonist. If a compound acted as a potentiator, an EC50 value for potentiation and a maximum extent of potentiation by the compound at this concentration of agonist was determined by non-linear curve fitting. In the second mode, several fixed concentrations of the present compounds were added to various wells on a plate, followed by a range of concentrations of agonist for each concentration of present compound; the EC50 values for the agonist at each concentration of compound were determined by non-linear curve fitting. A decrease in the EC50 value of the agonist with increasing concentrations of the present compounds (a leftward shift of the agonist concentration-response curve) is an indication of the degree of mGluR5 potentiation at a given concentration of the present compound. An increase in the EC50 value of the agonist with increasing concentrations of the present compounds (a rightward shift of the agonist concentration-response curve) is an indication of the degree of mGluR5 antagonism at a given concentration of the present compound. The second mode also indicates whether the present compounds also affect the maximum response to mGluR5 to agonists.
The mGluR5 activity was determined using the metabotropic glutamate receptor activity assays in human embryonic kidney cells as described herein, wherein the human embryonic kidney cells were transfected with human mGluR5. The compounds in Table 1 were synthesized with methods identical or analogous to those shown herein. The requisite starting materials were commercially available, described in the literature, or readily synthesized by one skilled in the art of organic synthesis. The compound number given in Table I corresponds to the compound number in Table II and the structure given therein.
Human mGluR5a cDNA in pCMV6-XL6 mammalian expression plasmid was purchased from OriGene Technologies, Inc. (catalogue number SC326357) and subcloned into pcDNA3.1(−). Human embryonic kidney (HEK) 293A cells were then transfected with human mGluR5a pcDNA3.1(−) using LipofectAmine-2000 (Invitrogen) and monoclones were selected and tested for functional response using a Ca^2+ mobilization assay. Monoclones were named for the species (“H” for human) plus the location on the plate (e.g. “10H”).
HEK cells transfected with the human mGluR5a receptor (H10H or H12H cell line) were plated at 15,000 cells/well in clear-bottomed poly-D-lysine-coated assay plates (BD Falcon) in glutamate-glutamine-free growth medium and incubated overnight at 37° C. and 5% CO2.

T1 sequence (P41594 21-1180 isoform P41594-2 limits assumed): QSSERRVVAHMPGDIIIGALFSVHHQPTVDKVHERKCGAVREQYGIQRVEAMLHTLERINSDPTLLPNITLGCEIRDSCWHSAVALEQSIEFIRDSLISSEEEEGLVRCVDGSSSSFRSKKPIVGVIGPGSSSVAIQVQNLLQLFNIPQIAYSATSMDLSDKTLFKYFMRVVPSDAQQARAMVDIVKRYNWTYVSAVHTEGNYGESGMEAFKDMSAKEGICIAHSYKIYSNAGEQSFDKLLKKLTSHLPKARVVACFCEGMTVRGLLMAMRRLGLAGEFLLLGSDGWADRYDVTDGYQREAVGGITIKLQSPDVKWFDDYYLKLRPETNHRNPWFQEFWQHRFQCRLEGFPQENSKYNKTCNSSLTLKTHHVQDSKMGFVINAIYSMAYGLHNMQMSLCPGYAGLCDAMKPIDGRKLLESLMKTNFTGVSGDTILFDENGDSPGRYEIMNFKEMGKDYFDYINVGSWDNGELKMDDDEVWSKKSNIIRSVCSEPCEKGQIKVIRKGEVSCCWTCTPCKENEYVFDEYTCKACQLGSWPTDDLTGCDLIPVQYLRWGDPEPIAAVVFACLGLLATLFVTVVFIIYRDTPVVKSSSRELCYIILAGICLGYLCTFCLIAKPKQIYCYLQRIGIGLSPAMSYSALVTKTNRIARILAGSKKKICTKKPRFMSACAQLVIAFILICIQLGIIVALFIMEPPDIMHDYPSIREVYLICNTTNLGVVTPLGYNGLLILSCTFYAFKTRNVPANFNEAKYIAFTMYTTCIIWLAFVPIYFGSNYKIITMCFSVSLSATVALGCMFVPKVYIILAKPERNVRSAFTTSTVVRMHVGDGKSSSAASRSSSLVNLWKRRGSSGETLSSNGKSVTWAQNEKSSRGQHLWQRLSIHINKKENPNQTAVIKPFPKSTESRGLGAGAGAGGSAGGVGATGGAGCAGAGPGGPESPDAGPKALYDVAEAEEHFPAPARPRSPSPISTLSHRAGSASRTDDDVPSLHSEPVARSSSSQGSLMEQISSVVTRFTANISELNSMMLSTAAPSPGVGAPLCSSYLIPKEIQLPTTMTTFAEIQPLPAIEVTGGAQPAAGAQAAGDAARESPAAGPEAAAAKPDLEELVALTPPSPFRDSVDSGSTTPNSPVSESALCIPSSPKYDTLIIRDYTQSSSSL

Row | Compound | pEC50 | EC50 [nM] | Emax (%) | Emax [%]
1 | CC1Cn2nc(COc3ccccc3)cc2C(=O)N1c1ccc(F)cc1 (racemic) [Example 18] | 6.79 | 162 | 70 | –
2 | CC1CN(c2ccc(F)cn2)C(=O)c2cc(COc3ccc(F)cc3)nn21 (racemic) [Example 237] | 6.70 | 200 | 52 | –
3 | CC1CNC(=O)c2cc(COc3ccccc3)nn21 (racemic) [Example 250] | <5.00 | > 10000 | 52 | –
4 | CC(Oc1ccccc1)c1cc2n(n1)CCN(CC1CC1)C2=O (racemic) [Example 257] | <4.52 | > 30200 | 25 | –
5 | CC(Oc1ccccc1)c1cc2n(n1)CCN(c1ccc(F)cc1)C2=O (racemic) [Example 258] | <5.00 | > 10000 | 65 | –
6 | O=C1c2cc(COc3ccccc3)nn2C(CO)CN1c1ccc(F)cc1 (racemic) [Example 263] | 5.92 | 1200 | 87 | –
7 | O=C1c2cc(COc3ccccc3)nn2C(CF)CN1c1ccc(F)cc1 (racemic) [Example 264] | 6.95 | 112 | 63 | –
8 | O=C1c2cc(COc3ccccc3)nn2C(F)CN1c1ccc(F)cc1 (racemic) [Example 271] | 7.05 | 89 | 66 | –
9 | CC1CN(CC2CC2)C(=O)c2cc(COc3ccccc3)nn21 (single isomer, unassigned) [Example 128] | 6.85 | 141 | 66 | –
10 | CC1CN(CC2CC2)C(=O)c2cc(COc3ccccc3)nn21 (single isomer, unassigned) [Example 129] | <4.52 | > 30200 | 21 | –
11 | CC1CN(c2ccc(F)cc2)C(=O)c2cc(COc3ccccc3)nn21 (single isomer, unassigned) [Example 130] | 7.08 | 83 | 71 | –
12 | CC1CN(c2ccc(F)cn2)C(=O)c2cc(COc3ccccc3)nn21 (single isomer, unassigned) [Example 132] | 7.00 | 100 | 68 | –
13 | Cc1nc(N2CC(C)n3nc(COc4ccccc4)cc3C2=O)ccc1F (single isomer, unassigned) [Example 135] | 7.00 | 100 | 56 | –
14 | CC1CN(c2ccc(F)cc2)C(=O)c2cc(COc3ccc(F)cc3)nn21 (single isomer, unassigned) [Example 238] | 6.87 | 135 | 67 | –
15 | CC1CN(c2ccc(F)cc2)C(=O)c2cc(COc3cccc(F)c3)nn21 (single isomer, unassigned) [Example 239] | 7.21 | 62 | 72 | –
16 | CC1CN(c2ccc(F)cc2)C(=O)c2cc(COc3ccccn3)nn21 (single isomer, unassigned) [Example 240] | <4.52 | > 30200 | 23 | –
17 | O=C1c2cc(COc3ccccc3)nn2C(F)CN1c1ccc(F)cc1 (single isomer, unassigned) [Example 272] | 7.04 | 91 | 69 | –
18 | O=C1c2cc(COc3ccccc3)nn2C(F)CN1c1ccc(F)cc1 (single isomer, unassigned) [Example 273] | 6.97 | 107 | 68 | –
19 | Cc1nc2cc(N3CC(C)n4nc(COc5ccccc5)cc4C3=O)ccc2s1 (single isomer, unassigned) [Example 376] | 7.12 | 75 | 60 | –
20 | O=C1NCCn2nc(COc3ccccc3)cc21 [Example 1] | 5.65 | 2240 | 69 | –
21 | CN1CCn2nc(COc3ccccc3)cc2C1=O [Example 2] | 5.87 | 1350 | 72 | –
22 | O=C1c2cc(COc3ccccc3)nn2CCN1c1ccc(F)cc1F [Example 3] | 6.94 | 115 | 101 | –

Row | Compound | pEC50 | EC50 [nM] | Emax (%) | Emax [%]
23 | O=c1c2nc(COc3ccccc3)nn2ccn1-c1ccc(F)cc1 [Example 4] | – | 617 | – | 52
24 | O=C1c2nc(COc3ccccc3)nn2CCN1c1ccc(F)cc1 [Example 5] | 5.59 | 2570 | 73 | –
25 | O=C1c2cc(COc3ccccc3)nn2CCN1c1ccc(F)cc1 [Example 6] | 7.14 | 72 | 82 | –
26 | O=C1c2cc(COc3ccccc3)nn2CCN1c1ccc(F)cn1 [Example 11] | 6.81 | 155 | 79 | –
27 | O=C1c2cc(COc3ccccc3)nn2CCN1c1ccccn1 [Example 12] | 6.06 | 871 | 69 | –
28 | O=C1c2cc(COc3ccccc3)nn2CCN1c1cccnc1 [Example 13] | 5.73 | 1860 | 64 | –
29 | Cc1ccc(N2CCn3nc(COc4ccccc4)cc3C2=O)nc1 [Example 16] | 6.68 | 209 | 76 | –
30 | CC(C)CN1CCn2nc(COc3ccccc3)cc2C1=O [Example 26] | 6.98 | 105 | 75 | –
31 | O=C1c2cc(COc3ccccc3)nn2CCN1c1ccncc1F [Example 29] | 6.24 | 575 | 80 | –
32 | Cc1cccnc1N1CCn2nc(COc3ccccc3)cc2C1=O [Example 30] | – | 537 | – | 75
33 | Cc1ccncc1N1CCn2nc(COc3ccccc3)cc2C1=O [Example 32] | 6.13 | 741 | 74 | –
34 | Cn1ccn2nc(COc3ccccc3)cc2c1=O [Example 37] | – | 2070 | – | 74
35 | Cc1cccc(N2CCn3nc(COc4ccccc4)cc3C2=O)c1 [Example 48] | 7.09 | 81 | 65 | –
36 | Cc1ccc(N2CCn3nc(COc4ccccc4)cc3C2=O)cc1 [Example 49] | 7.09 | 81 | 64 | –
37 | COc1ccc(N2CCn3nc(COc4ccccc4)cc3C2=O)cc1 [Example 50] | 6.92 | 120 | 58 | –
38 | COc1cc(N2CCn3nc(COc4ccccc4)cc3C2=O)ccc1F [Example 51] | 7.26 | 55 | 61 | –
39 | Cc1cc(N2CCn3nc(COc4ccccc4)cc3C2=O)ccc1F [Example 52] | 7.58 | 26 | 68 | –
40 | Cc1cccc(N2CCn3nc(COc4ccccc4)cc3C2=O)c1C [Example 56] | 7.62 | 24 | 69 | –
41 | CCOc1ccccc1N1CCn2nc(COc3ccccc3)cc2C1=O [Example 57] | 6.82 | 150 | 67 | –
42 | COc1ccc(N2CCn3nc(COc4ccccc4)cc3C2=O)cc1F [Example 58] | 6.92 | 120 | 58 | –
43 | Cc1cc(F)ccc1N1CCn2nc(COc3ccccc3)cc2C1=O [Example 60] | 7.40 | 40 | 66 | –
